From patent US20100041756A1, “METHOD OF MODULATING B CELL FUNCTIONING” (priority 2004, published 2010)

Test system: DBA/1 mice with established CIA
Assay: Treatment of established CIA (Example 4): clinical score, paw-swelling, histology, relapse
Assay type: in vivo, mouse
Description: FIG. 6 is a graphical representation of the treatment of established CIA with 3,4-DAA. DBA/1 mice were immunised with type II collagen in CFA and monitored for development of arthritis. On day 1 of arthritis, mice were injected intraperitoneally with 3,4-DAA on a daily basis. Paw thickness was measured with callipers. The clinical scoring system was as follows: 0=normal, 1=slight swelling and/or erythema, and 2=pronounced oedematous swelling. Each limb was graded, giving a maximum score of 8 per mouse. Histological assessment of arthritis was carried out on haematoxylin and eosin stained sections using a scoring system as follows: 0, normal; 1, minimal synovitis without cartilage/bone erosion; 2, synovitis with some marginal erosion but joint architecture maintained; 3, severe synovitis and erosion with loss of normal joint architecture. There were 14 mice/group (data pooled from two separate experiments). *, P<0.05 (compared to control group).
FIG. 9 is a graphical representation depicting the relapse of arthritis 4 days after cessation of therapy. Mice with established CIA (n=6) were treated with 3,4-DAA (400 mg/kg/day) from days 1 to 5 of arthritis and clinical severity of arthritis was monitored up to day 12. Arthritis is seen to relapse at around day 9.
Type II collagen was purified from bovine cartilage, as described [Williams, R. O. 2004, Methods Mol. Med. 98:207-216] and solubilized by stirring overnight at 4° C. in acetic acid (0.1M) or Tris buffer (0.05 M Tris, containing 0.2 M NaCl, pH 7.4). Tranilast was synthesised by Angiogen Pharmaceuticals Pty. Ltd. For in vivo studies Tranilast was dissolved at a maximum concentration of 10 mg/ml in 1% sodium bicarbonate by heating for 1 h at 70° C. Upon cooling, an emulsion was formed. For in vitro studies Tranilast was dissolved in dimethyl sulphoxide (DMSO). 3-Hydroxy-anthranilic acid (3-HAA) was purchased from Sigma (Poole, UK) and dissolved in PBS.
Male DBA/1 mice (8-12 weeks old) were immunized intradermally at the base of the tail with bovine type II collagen (200 μg) emulsified in complete Freund's adjuvant (CFA; Difco, West Moseley, UK). Arthritis was monitored clinically using the following scoring system: 0=normal, 1=slight swelling and/or erythema, and 2=pronounced oedematous swelling. Each limb was graded, giving a maximum score of 8 per mouse. In addition, paw-swelling was measured using calipers.
Histopathological assessment of arthritis was carried out in a blinded fashion on decalcified haematoxylin and eosin stained sections using a scoring system as follows: 0, normal; 1, minimal synovitis without cartilage/bone erosion; 2, synovitis with some marginal erosion but joint architecture maintained; 3, severe synovitis and erosion with loss of normal joint architecture. This research was approved by the local ethical review process committee and by the Home Office of Great Britain.
The ability of Tranilast to treat established CIA was tested. Mice were immunised with type II collagen in CFA. On day 1 of clinical arthritis (the day that arthritis was first observed) mice were randomly assigned to different treatment groups and given Tranilast (100 mg/kg/day, 200 mg/kg/day or 400 mg/kg/day) or vehicle alone over a 10 day period. […]
It is clearly of interest to establish what happens when treatment with Tranilast is stopped. […] Treatment was then stopped and mice were monitored for a further 7 days.

[1] = 100, 200 or 400 mg/kg/day, 10 days (FIG. 6)

In the case of `COc1ccc(/C=C/C(=O)Nc2ccccc2C(=O)O)cc1OC` [Tranilast, 2-[[3-(3,4-dimethoxyphenyl)-1-oxo-2-propenyl]amino]benzoic acid], the “day of relapse (exacerbation) of arthritis after cessation of therapy” value (400 mg/kg/day days 1 to 5, monitored up to day 12 (FIG. 9)) is reported as 9 days, the “arthritis severity during the treatment period” value (400 mg/kg/day, day 1 to day 5 of arthritis (FIG. 9)) is reported as “dramatic reduction in arthritis severity” and the clinical scores [1] is reported as “dose-dependent reduction”. For the same molecule, the paw-swelling [1] was “dose-dependent reduction” and the “histological severity of arthritis” value (day 10 (FIG. 6)) was “clear dose-dependent reduction”.
